For experiment [1], the system named is MDA-MB-231. Nature of the experiment: Cell growth inhibition, CellTiter-Glo Luminescent Cell Viability Assay, MDA-MB-231. The conditions noted are these: Homo sapiens, MDA-MB-231, 96 h, MDA-MB-231 cells, 4 days incubation. Format: cell-based. The protocol:
(§1) Cell growth inhibitory activity of representative Compounds of the Disclosure was determined in various cell lines using CellTiter-Glo® Luminescent Cell Viability Assay. Cells were seeded in 384-well white opaque cell culture plates at a density of 2,000 cells/well with serially diluted compounds and incubated at 37° C. in an atmosphere of 95% air and 5% CO2 for 4 days. Cell viability was determined using the CellTiter-Glo® Luminescent Cell Viability Assay Kit (Promega, Madison, Wis.) according to the manufacture's instruction. Briefly, a volume of CellTiter-Glo® Reagent equal to the volume of cell culture medium was added to each well, and then the plates were incubated at room temperature for 10-20 minutes. The luminescent signal was measured using a Tecan Infinite M1000 multimode microplate reader (Tecan, Morrisville, N.C.). The half maximal inhibitory concentration (IC50) was calculated using the GraphPad Prism 5 software (GraphPad Software, La Jolla, Calif.).

The test system of experiment [2] is MOLM-13. Briefly: Cell growth inhibition, CellTiter-Glo Luminescent Cell Viability Assay, MOLM-13. The experiment is classed as cell-based. The note with it: Homo sapiens, MOLM-13, 96 h, MOLM-13 cells, 4 days incubation. How it is done:
as §1

Turning to `Cc1c(C#Cc2cnn(CCN3CCN(c4cccc5c4C(=O)N(C4CCC(=O)NC4=O)C5=O)CC3)c2)sc2c1C(c1ccc(Cl)cc1)=N[C@@H](C)c1nnc(C)n1-2` (stereo partly drawn) [compound 183, 4-(4-(2-(4-(((S)-4-(4-chlorophenyl)-3,6,9-trimethyl-6H-thieno[3,2-f][1,2,4]triazolo[4,3-a][1,4]diazepin-2-yl)ethynyl)-1H-pyrazol-1-yl)ethyl)piperazin-1-yl)-2-(2,6-dioxopiperidin-3-yl)isoindoline-1,3-dione], the IC50 in experiment [1] amounted to 0.3 nM; in experiment [2], 0.8 nM.
`Cc1c(C#Cc2cnn(CCCCNc3ccc4c(c3)CN(C3CCC(=O)NC3=O)C4=O)c2)sc2c1C(c1ccc(Cl)cc1)=N[C@@H](C)c1nnc(C)n1-2` (stereo partly drawn) [compound 184, 3-(5-((4-(4-(((S)-4-(4-chlorophenyl)-3,6,9-trimethyl-6H-thieno[3,2-f][1,2,4]triazolo[4,3-a][1,4]diazepin-2-yl)ethynyl)-1H-pyrazol-1-yl)butyl)amino)-1-oxoisoindolin-2-yl)piperidine-2,6-dione]: the IC50 in experiment [1] worked out at 0.1 nM; in experiment [2], 0.5 nM.
The like results for `Cc1c(C#Cc2cnn(CCCNc3ccc4c(c3)CN(C3CCC(=O)NC3=O)C4=O)c2)sc2c1C(c1ccc(Cl)cc1)=N[C@@H](C)c1nnc(C)n1-2` (stereo partly drawn) [compound 185, 3-(5-((3-(4-(((S)-4-(4-chlorophenyl)-3,6,9-trimethyl-6H-thieno[3,2-f][1,2,4]triazolo[4,3-a][1,4]diazepin-2-yl)ethynyl)-1H-pyrazol-1-yl)propyl)amino)-1-oxoisoindolin-2-yl)piperidine-2,6-dione] were, in that order, 0.1 nM and 0.2 nM.
Consider `Cc1c(C#Cc2cnn(CCCN3CCC(Nc4cccc5c4CN(C4CCC(=O)NC4=O)C5=O)CC3)c2)sc2c1C(c1ccc(Cl)cc1)=N[C@@H](CC(N)=O)c1nnc(C)n1-2` (stereo partly drawn) [compound 190, 2-((6S)-4-(4-chlorophenyl)-2-((1-(3-(4-((2-(2,6-dioxopiperidin-3-yl)-1-oxoisoindolin-4-yl)amino)piperidin-1-yl)propyl)-1H-pyrazol-4-yl)ethynyl)-3,9-dimethyl-6H-thieno[3,2-f][1,2,4]triazolo[4,3-a][1,4]diazepin-6-yl)acetamide], for which the results for the IC50 in experiment [1] and in experiment [2] were 0.1 nM and 0.05 nM, respectively.
Regarding `CCNC(=O)C[C@@H]1N=C(c2ccc(Cl)cc2)c2c(sc(C#Cc3cnn(CCCN4CCC(Nc5cccc6c5CN(C5CCC(=O)NC5=O)C6=O)CC4)c3)c2C)-n2c(C)nnc21` (stereo partly drawn) [compound 191, 2-((6S)-4-(4-chlorophenyl)-2-((1-(3-(4-((2-(2,6-dioxopiperidin-3-yl)-1-oxoisoindolin-4-yl)amino)piperidin-1-yl)propyl)-1H-pyrazol-4-yl)ethynyl)-3,9-dimthyl-6H-thieno[3,2-f][1,2,4]triazolo[4,3-a][1,4]diazepin-6-yl)-N-ethylacetamide], the IC50 in experiment [1] was found to be 0.2 nM; in experiment [2] it was 0.04 nM.
In the case of `Cc1c(C#Cc2cnn(CCCN3CCC(Nc4cccc5c4CN(C4CCC(=O)NC4=O)C5=O)CC3)c2)sc2c1C(c1ccc(Cl)cc1)=N[C@@H](CC(=O)N1CCN(C)CC1)c1nnc(C)n1-2` (stereo partly drawn) [compound 192, 3-(4-((1-(3-(4-(((S)-4-(4-chlorophenyl)-3,9-dimethyl-6-(2-(4-methylpiperazin-1-yl)-2-oxoethyl)-6H-thieno[3,2-f][1,2,4]triazolo[4,3-a][1,4]diazepin-2-yl)ethynyl)-1H-pyrazol-1-yl)propyl)piperidin-4-yl)amino)-1-oxoisoindolin-2-yl)piperidine-2,6-dione], the values for the half-maximal inhibitory concentration (IC50) in experiment [1] and in experiment [2] were 0.08 nM and 0.07 nM, respectively.
For `Cc1c(C#Cc2cnn(CCCN3CCC(Nc4cccc5c4CN(C4CCC(=O)NC4=O)C5=O)CC3)c2)sc2c1C(c1ccc(Cl)cc1)=N[C@@H](CC(=O)Nc1ccc(O)cc1)c1nnc(C)n1-2` (stereo partly drawn) [compound 193, 2-((6S)-4-(4-chlorophenyl)-2-((1-(3-(4-((2-(2,6-dioxopiperidin-3-yl)-1-oxoisoindolin-4-yl)amino)piperidin-1-yl)propyl)-1H-pyrazol-4-yl)ethynyl)-3,9-dimethyl-6H-thieno[3,2-f][1,2,4]triazolo[4,3-a][1,4]diazepin-6-yl)-N-(4-hydroxyphenyl)acetamide], the IC50 in experiment [1] was determined as 0.06 nM; in experiment [2], 0.03 nM.
Regarding `Cc1c(C#Cc2cnn(CCOCCOCCOCC#Cc3cccc4c3CN(C3CCC(=O)NC3=O)C4=O)c2)sc2c1C(c1ccc(Cl)cc1)=N[C@@H](CC(=O)OC(C)(C)C)c1nnc(C)n1-2` (stereo partly drawn) [compound 194, tert-butyl 2-((6S)-4-(4-chlorophenyl)-2-((1-(2-(2-(2-((3-(2-(2,6-dioxopiperidin-3-yl)-1-oxoisoindolin-4-yl)prop-2-yn-1-yl)oxy)ethoxy)ethoxy)ethyl)-1H-pyrazol-4-yl)ethynyl)-3,9-dimethyl-6H-thieno[3,2-f][1,2,4]triazolo[4,3-a][1,4]diazepin-6-yl)acetate], the IC50 in experiment [1] is 0.7 nM; in experiment [2] it was 0.8 nM.
The like results for `Cc1c(C#Cc2cnn(CCOCCOCCOCC#Cc3cccc4c3CN(C3CCC(=O)NC3=O)C4=O)c2)sc2c1C(c1ccc(Cl)cc1)=N[C@@H](CC(N)=O)c1nnc(C)n1-2` (stereo partly drawn) [compound 195, 2-((6S)-4-(4-chlorophenyl)-2-((1-(2-(2-(2-((3-(2-(2,6-dioxopiperidin-3-yl)-1-oxoisoindolin-4-yl)prop-2-yn-1-yl)oxy)ethoxy)ethoxy)ethyl)-1H-pyrazol-4-yl)ethynyl)-3,9-dimethyl-6H-thieno[3,2-f][1,2,4]triazolo[4,3-a][1,4]diazepin-6-yl)acetamide] were, in that order, 5.4 nM and 2.4 nM.
Take `Cc1c(C#Cc2cnn(CCOCCOCCOCC#Cc3cccc4c3CN(C3CCC(=O)NC3=O)C4=O)c2)sc2c1C(c1ccc(Cl)cc1)=N[C@@H](C)c1nnc(C)n1-2` (stereo partly drawn) [compound 196]: the IC50 in experiment [1] came out at 0.4 nM; in experiment [2], 0.2 nM.
The like results for `Cc1c(C#Cc2cnn(CCOCCOCCOCC#Cc3cccc4c3CN(C3CCC(=O)NC3=O)C4=O)c2)sc2c1C(c1ccc(Cl)cc1)=N[C@@H](CC(=O)N1CCN(C)CC1)c1nnc(C)n1-2` (stereo partly drawn) [compound 197, 3-(4-(3-(2-(2-(2-(4-(((S)-4-(4-chlorophenyl)-3,9-dimethyl-6-(2-(4-methylpiperazin-1-yl)-2-oxoethyl)-6H-thieno[3,2-f][1,2,4]triazolo[4,3-a][1,4]diazepin-2-yl)ethynyl)-1H-pyrazol-1-yl)ethoxy)ethoxy)ethoxy)prop-1-yn-1-yl)-1-oxoisoindolin-2-yl)piperidine-2,6-dione] were, in that order, 2.5 nM and 1.1 nM.
Take `Cc1ncsc1-c1ccc([C@H](C)NC(=O)[C@@H]2C[C@@H](O)CN2C(=O)[C@@H](NC(=O)COCCOCCOCCOCCn2cc(C#Cc3sc4c(c3C)C(c3ccc(Cl)cc3)=N[C@@H](C)c3nnc(C)n3-4)cn2)C(C)(C)C)cc1` [compound 198, (2S,4R)-1-((S)-2-(tert-butyl)-17-(4-(((S)-4-(4-chlorophenyl)-3,6,9-trimethyl-6H-thieno[3,2-f][1,2,4]triazolo[4,3-a][1,4]diazepin-2-yl)ethynyl)-1H-pyrazol-1-yl)-4-oxo-6,9,12,15-tetraoxa-3-azaheptadecanoyl)-4-hydroxy-N-((S)-1-(4-(4-methylthiazol-5-yl)phenyl)ethyl)pyrrolidine-2-carboxamide]: the IC50 in experiment [1] was 1.5 nM; in experiment [2], 0.24 ± 0.06 nM.

Source of the values: US10975093B2, “Fused 1,4-diazepines as BET protein degraders” (THE REGENTS OF THE UNIVERSITY OF MICHIGAN, priority 2016, dated 2021).
